Laboratory results published in patent US20240148821A1, “PHARMACEUTICAL USE OF CYCLIC PEPTIDE COMPOUND” (CHUGAI SEIYAKU KABUSHIKI KAISHA, priority 2021, published 2024).
Numbered stars: 1 amine (or outer) side, 2 acyl side, 3 side chain; on linkers, the order of the positions; unused ones are H or OH. Bridge positions count the residues as written; N and C are the ends. Square brackets hold non-standard residues; d marks the D form. Peptide text beside a SMILES is read from it. * marks the point of attachment. hPhe(3-Cl-4-CF3) = N[C@@H](CCc1ccc(C(F)(F)F)c(Cl)c1)C(=O)O; NMePhe(4-CF3) = CN[C@@H](Cc1ccc(C(F)(F)F)cc1)C(=O)O; NMePhe(4-Cl) = CN[C@@H](Cc1ccc(Cl)cc1)C(=O)O; NMePhe(4-Me) = CN[C@@H](Cc1ccc(C)cc1)C(=O)O; NMedβ3hAla = C[C@H](CC(=O)[*:2])N(C)[*:1]; NMeGly(cPent) = CN[C@H](C(=O)O)C1CCCC1; Phe(3-I) = N[C@@H](Cc1cccc(I)c1)C(=O)O; X26 = CC(C)=CC[C@H](N[*:1])C(=O)[*:2]; NMeCha = CN[C@@H](CC1CCCCC1)C(=O)O; X124 = O=C([C@H]1COCCN1[*:1])[*:2]; Hyp = O=C(O)[C@@H]1C[C@@H](O)CN1; NMeChg = CN[C@H](C(=O)O)C1CCCCC1; dNMeF = CN[C@H](Cc1ccccc1)C(=O)O; NMeD = CN[C@@H](CC(=O)O)C(=O)O; NMeL = CN[C@@H](CC(C)C)C(=O)O; dNMeAbu = CC[C@@H](NC)C(=O)O; d(β3hA) = C[C@@H](N)CC(=O)O; NMeS = CN[C@@H](CO)C(=O)O; NMeA = CN[C@@H](C)C(=O)O; NMeAib = CNC(C)(C)C(=O)O; Piperidide = C1CCN(*)CC1; Pra = C#CC[C@H](N)C(=O)O; dNMeA = CN[C@H](C)C(=O)O; Ac5c = NC1(C(=O)O)CCCC1; Aze = O=C(O)[C@@H]1CCN1; CH2CMe2OH = CC(C)(O)C*; NBuGly = CCCCNCC(=O)O; Aib = CC(C)(N)C(=O)O; Isopentyl = CC(C)CC*; NEtG = CCNCC(=O)O; Sar = CNCC(=O)O

What follows are compounds tested against protein-protein interaction between Kras and SOS1 (biotin-tagged human Kras loaded with GDP, His-tagged human SOS1) (Homo sapiens (Human), UniProt P01116, G12D) (assay: Protein-protein interaction inhibition between Kras and SOS1 (KrasG12D-SOS PPI) using AlphaScreen). Details: AlphaScreen; biotin-tagged human Kras loaded with GDP, His-tagged human SOS1; read-out: KRAS G12D-SOS PPI IC50.
Format: biochemical

SMILES | IC50 [nM]
CC[C@H](C)[C@@H]1NC(=O)[C@H](CC(C)C)N(C)C(=O)C[C@@H](C(=O)N2CCCCC2)N(C)C(=O)[C@H](C2CCCCC2)N(C)C(=O)C2(CCCC2)NC(=O)[C@@H]2C[C@@H](O)CN2C(=O)[C@H](CCc2ccc(C(F)(F)F)c(Cl)c2)NC(=O)CN(C)C(=O)[C@H](CC2CCCCC2)N(C)C(=O)CN(C)C(=O)CN(C)C1=O [Compound 1376, (3S,9S,18S,21S,25S,28S,34S,36R)-3-[2-[3-chloro-4-(trifluoromethyl)phenyl]ethyl]-28-cyclohexyl-9-(cyclohexylmethyl)-36-hydroxy-21-isobutyl-7,10,13,16,22,26,29-heptamethyl-18-[(1S)-1-methylpropyl]-25-(piperidine-1-carbonyl)spiro[1,4,7,10,13,16,19,22,26,29,32-undecazabicyclo[32.3.0]heptatriacontane-31,1′-cyclopentane]-2,5,8,11,14,17,20,23,27,30,33-undecone] ([NMeL]I[Sar][Sar][NMeCha][Sar][hPhe(3-Cl-4-CF3)][Hyp][Ac5c][NMeChg][NMeD]-Piperidide; lactam N-11) | 0.71
CC[C@H](C)[C@@H]1NC(=O)[C@H](C)N(C)C(=O)C[C@@H](C)N(C)C(=O)[C@H](CC(C)C)NC(=O)C(C)(C)N(C)C(=O)[C@H](CC(C)C)NC(=O)[C@H](CCc2ccc(C(F)(F)F)c(Cl)c2)NC(=O)[C@@H](C)N(C)C(=O)[C@H](Cc2ccc(C)cc2)N(C)C(=O)CN(C)C(=O)CN(C)C1=O [Compound 1381] (cyclo(I[Sar][Sar][NMePhe(4-Me)][dNMeA][hPhe(3-Cl-4-CF3)]L[NMeAib]L[NMedβ3hAla][NMeA])) | 150
CC[C@H](C)[C@@H]1NC(=O)[C@H](CC(C)C)N(C)C(=O)C[C@@H](C)N(C)C(=O)[C@H](CC(C)C)NC(=O)C(C)(C)N(C)C(=O)[C@H](CC(C)C)NC(=O)[C@H](CCc2ccc(C(F)(F)F)c(Cl)c2)NC(=O)[C@@H](C)N(C)C(=O)[C@H](Cc2ccc(C)cc2)N(C)C(=O)CN(C)C(=O)CN(C)C1=O [Compound 1384] (cyclo(I[Sar][Sar][NMePhe(4-Me)][dNMeA][hPhe(3-Cl-4-CF3)]L[NMeAib]L[NMedβ3hAla][NMeL])) | 230
CC[C@H](C)[C@@H]1NC(=O)[C@H](C)N(C)C(=O)C[C@@H](C)N(C)C(=O)[C@H](CC(C)C)NC(=O)C(C)(C)N(C)C(=O)[C@H](CC(C)C)NC(=O)[C@H](CCc2ccc(C(F)(F)F)c(Cl)c2)NC(=O)[C@@H](C)N(C)C(=O)[C@H](Cc2ccc(C(F)(F)F)cc2)N(C)C(=O)CN(C)C(=O)CN(C)C1=O [Compound 1385] (cyclo(I[Sar][Sar][NMePhe(4-CF3)][dNMeA][hPhe(3-Cl-4-CF3)]L[NMeAib]L[NMedβ3hAla][NMeA])) | 200
CC[C@H](C)[C@@H]1NC(=O)[C@H](CC(C)C)N(C)C(=O)C[C@@H](C)N(C)C(=O)[C@H](CC(C)C)NC(=O)C(C)(C)N(C)C(=O)[C@H](CC(C)C)NC(=O)[C@H](CCc2ccc(C(F)(F)F)c(Cl)c2)NC(=O)[C@@H](C)N(C)C(=O)[C@H](CC2CCCCC2)N(C)C(=O)CN(C)C(=O)CN(C)C1=O [Compound 1389] (cyclo(I[Sar][Sar][NMeCha][dNMeA][hPhe(3-Cl-4-CF3)]L[NMeAib]L[NMedβ3hAla][NMeL])) | 240
CC[C@H](C)[C@@H]1NC(=O)[C@H](C)N(C)C(=O)C[C@@H](C)N(C)C(=O)[C@H](CC(C)C)NC(=O)C(C)(C)N(C)C(=O)[C@H](CC(C)C)NC(=O)[C@H](CCc2ccc(C(F)(F)F)c(Cl)c2)NC(=O)[C@@H](C)N(C)C(=O)[C@H](CC2CCCCC2)N(C)C(=O)CN(C)C(=O)CN(C)C1=O [Compound 1390] (cyclo(I[Sar][Sar][NMeCha][dNMeA][hPhe(3-Cl-4-CF3)]L[NMeAib]L[NMedβ3hAla][NMeA])) | 280
C#CC[C@@H]1NC(=O)[C@H](Cc2cccc(I)c2)NC(=O)CN(C)C(=O)[C@H](Cc2ccc(C(F)(F)F)cc2)N(C)C(=O)CN(C)C(=O)CN(C)C(=O)[C@H]([C@@H](C)CC)NC(=O)[C@H](CC(C)C)N(C)C(=O)C[C@@H](C)N(C)C(=O)[C@H](CC(C)C)NC(=O)C(C)(C)N(C)C1=O [Compound 1406] (cyclo(I[Sar][Sar][NMePhe(4-CF3)][Sar][Phe(3-I)][Pra][NMeAib]L[NMedβ3hAla][NMeL])) | 160
CC[C@H](C)[C@@H]1NC(=O)[C@H](CC(C)C)N(C)C(=O)C[C@@H](C)N(C)C(=O)[C@H](CC(C)C)NC(=O)C(C)(C)N(C)C(=O)[C@H](CC=C(C)C)NC(=O)[C@H](Cc2cccc(I)c2)NC(=O)CN(C)C(=O)[C@H](Cc2ccc(Cl)cc2)N(C)C(=O)CN(C)C(=O)CN(C)C1=O [Compound 1418] (cyclo(I[Sar][Sar][NMePhe(4-Cl)][Sar][Phe(3-I)][X26][NMeAib]L[NMedβ3hAla][NMeL])) | 110
CC[C@@H]1C(=O)NC2(CCCC2)C(=O)N(C)[C@@H](C2CCCC2)C(=O)N(C)[C@H](C(=O)N2CCCCC2)CC(=O)N(C)[C@@H](CC(C)C)C(=O)N[C@@H]([C@@H](C)CC)C(=O)N(C)CC(=O)N(C)CC(=O)N(C)[C@@H](CC2CCCCC2)C(=O)N(C)CC(=O)N[C@@H](CCc2ccc(C(F)(F)F)c(Cl)c2)C(=O)N1C [Compound 1439] ([NMeL]I[Sar][Sar][NMeCha][Sar][hPhe(3-Cl-4-CF3)][dNMeAbu][Ac5c][NMeGly(cPent)][NMeD]-Piperidide; lactam N-11) | 3.7
CC[C@H](C)[C@@H]1NC(=O)[C@H](CC(C)C)N(C)C(=O)C[C@@H](C(=O)N2CCCCC2)N(C)C(=O)[C@H](C2CCCCC2)N(C)C(=O)C2(CCCC2)NC(=O)[C@H]2COCCN2C(=O)[C@H](CCc2ccc(C(F)(F)F)c(Cl)c2)NC(=O)CN(C)C(=O)[C@H](CC2CCCCC2)N(C)C(=O)CN(C)C(=O)CN(C)C1=O [Compound 1445] ([NMeL]I[Sar][Sar][NMeCha][Sar][hPhe(3-Cl-4-CF3)][X124][Ac5c][NMeChg][NMeD]-Piperidide; lactam N-11) | 250
CC[C@H](C)[C@@H]1NC(=O)[C@H](CC(C)C)N(C)C(=O)C[C@@H](C(=O)N2CCCCC2)N(C)C(=O)[C@H](C2CCCC2)N(C)C(=O)C2(CCCC2)NC(=O)[C@@H](Cc2ccccc2)N(C)C(=O)[C@H](CCc2ccc(C(F)(F)F)c(Cl)c2)NC(=O)CN(C)C(=O)[C@H](CC2CCCCC2)N(C)C(=O)CN(C)C(=O)CN(C)C1=O [Compound 1446] ([NMeL]I[Sar][Sar][NMeCha][Sar][hPhe(3-Cl-4-CF3)][dNMeF][Ac5c][NMeGly(cPent)][NMeD]-Piperidide; lactam N-11) | 150
CC[C@H](C)[C@@H]1NC(=O)[C@H](CC(C)C)N(C)C(=O)C[C@@H](C)NC(=O)[C@H](CC(C)C)N(C)C(=O)C2(CCCC2)NC(=O)[C@H](COCC(C)(C)O)N(C)C(=O)[C@H](CCc2ccc(C(F)(F)F)c(Cl)c2)NC(=O)CN(C)C(=O)[C@H](COCCC(C)C)N(C)C(=O)CN(C)C(=O)CN(CC)C1=O [Compound 1464] (cyclo([Ac5c][NMeL][d(β3hA)][NMeL]I[NEtG][Sar][NMeS](Isopentyl)[Sar][hPhe(3-Cl-4-CF3)][NMeS](CH2CMe2OH))) | 190
CC[C@H](C)[C@@H]1NC(=O)[C@H](CC(C)C)N(C)C(=O)C[C@@H](C)NC(=O)[C@H](C2CCCC2)N(C)C(=O)C2(CCCC2)NC(=O)[C@@H]2CCCN2C(=O)[C@H](CCc2ccc(C(F)(F)F)c(Cl)c2)NC(=O)[C@@H](C)N(C)C(=O)[C@H](Cc2ccc(C(F)(F)F)cc2)N(C)C(=O)[C@@H]2CCN2C(=O)CN(C)C1=O [Compound 1468] (cyclo([Ac5c][NMeGly(cPent)][d(β3hA)][NMeL]I[Sar][Aze][NMePhe(4-CF3)][dNMeA][hPhe(3-Cl-4-CF3)]P)) | 90
CC[C@H](C)[C@@H]1NC(=O)[C@H](C)N(C)C(=O)C[C@@H](C)NC(=O)[C@H](C2CCCC2)N(C)C(=O)C2(CCCC2)NC(=O)[C@@H]2CCCN2C(=O)[C@H](CCc2ccc(C(F)(F)F)c(Cl)c2)NC(=O)[C@H]2CCCN2C(=O)[C@H](Cc2ccc(C(F)(F)F)cc2)N(C)C(=O)CN(C)C(=O)CN(C)C1=O [Compound 1470] (cyclo([Ac5c][NMeGly(cPent)][d(β3hA)][NMeA]I[Sar][Sar][NMePhe(4-CF3)][dP][hPhe(3-Cl-4-CF3)]P)) | 210
CC[C@H](C)[C@@H]1NC(=O)[C@H](CC(C)C)N(C)C(=O)C[C@@H](C)NC(=O)[C@H](C2CCCC2)N(C)C(=O)C2(CCCC2)NC(=O)[C@@H]2CCCN2C(=O)[C@H](CCc2ccc(C(F)(F)F)c(Cl)c2)NC(=O)CN(C)C(=O)[C@H](Cc2ccc(C)cc2)N(C)C(=O)CN(C)C(=O)CN(C)C1=O [Compound 1471] (cyclo([Ac5c][NMeGly(cPent)][d(β3hA)][NMeL]I[Sar][Sar][NMePhe(4-Me)][Sar][hPhe(3-Cl-4-CF3)]P)) | 1.7
CCCCN1CC(=O)N(C)CC(=O)N(C)[C@@H](COCCC(C)C)C(=O)N(C)CC(=O)N[C@@H](CCc2ccc(C(F)(F)F)c(Cl)c2)C(=O)N[C@@H](COCC(C)(C)O)C(=O)NC(C)(C)C(=O)N(C)[C@@H](CC(C)C)C(=O)N[C@H](C)CC(=O)N(C)[C@@H](CC(C)C)C(=O)N[C@@H]([C@@H](C)CC)C1=O [Compound 1473] (cyclo([Aib][NMeL][d(β3hA)][NMeL]I[NBuGly][Sar][NMeS](Isopentyl)[Sar][hPhe(3-Cl-4-CF3)]S(CH2CMe2OH))) | 390
CC[C@H](C)[C@@H]1NC(=O)[C@H](CC(C)C)N(C)C(=O)C[C@@H](C)NC(=O)[C@H](C2CCCC2)N(C)C(=O)C2(CCCC2)NC(=O)[C@@H]2CCCN2C(=O)[C@H](CCc2ccc(C(F)(F)F)c(Cl)c2)NC(=O)CN(C)C(=O)[C@H](Cc2ccc(C(F)(F)F)cc2)N(C)C(=O)[C@@H]2CCN2C(=O)[C@H](C)N(C)C1=O [Compound 1475] (cyclo([Ac5c][NMeGly(cPent)][d(β3hA)][NMeL]I[NMeA][Aze][NMePhe(4-CF3)][Sar][hPhe(3-Cl-4-CF3)]P)) | 2.7
CC[C@H](C)[C@@H]1NC(=O)[C@H](CC(C)C)N(C)C(=O)C[C@@H](C)NC(=O)[C@H](C2CCCC2)N(C)C(=O)C2(CCCC2)NC(=O)[C@@H]2CCCN2C(=O)[C@H](CCc2ccc(C(F)(F)F)c(Cl)c2)NC(=O)CN(C)C(=O)[C@H](CC2CCCCC2)N(C)C(=O)[C@@H]2CCN2C(=O)[C@H](C)N(C)C1=O [Compound 1477] (cyclo([Ac5c][NMeGly(cPent)][d(β3hA)][NMeL]I[NMeA][Aze][NMeCha][Sar][hPhe(3-Cl-4-CF3)]P)) | 28
